Experimental data from patent US8445207B2, “Genes based on thalidomide, valproic acid and methotrexate treatment for screening of drug inducing teratogenicity and screening method using thereof” (priority 2009, dated 2013).

System: JEG-3 (human placental choriocarcinoma cell line)
Experiment: Oligo microarray gene expression in drug-treated JEG-3 (Cy5 treated / Cy3 control)
Assay type: cell-based
Experimental: Thalidomide, valproic acid, and methotrexate were treated to human placental choriocarcinoma cell line at the concentrations determined above (Inhibition concentration: the concentration that can kill approximately 30% of the total cells, that is the concentration of 70% viability, IC30). mRNA was extracted from the drug treated cell line, followed by synthesis of cDNA which was labeled with Cy5. The non-treated control was labeled with Cy3. The fluorescence labeled cDNA was hybridized with 41K (thalidomide), 44K (valproic acid, methotrexate) human whole genome oligomicroarray chips (Agilent, USA), followed by fluorescent image scanning to analyze gene expression patterns (see FIG. 4). Volcano Plot of each substance was also attached. Y axis indicates probability (generally converted by −log 10). X axis indicates differential expression, which is presented by log-ratio.
Total RNA was separated from the treated cell by using trizol reagent (Invitrogen Life Technologies, USA) according to the manufacture's instructions, followed by purification using RNeasy mini kit (Qiagen, USA). Genomic DNA was eliminated during RNA purification using RNase-free DNase set (Qiagen, USA).
30 μg of the total RNA obtained above and 2 μg (1 μg/μl) of oligo (dT) primer were mixed, followed by reaction at 65° C. for 10 minutes. Annealing was performed in ice right after the reaction. Reagents were prepared as shown in Table 1 for reverse transcription of the annealed RNA.
The total RNA separated from the control group JEG-3 cells was labeled with Cy3-dUTP (green) and the total RNA separated from the experiment group JEG-3 cells treated with thalidomide, valproic acid and methotrexate was labeled with Cy5-dUTP (red). At this time, the two samples were mixed and purified by Microcon YM-30 column (Millipore, USA).
Hybridization and washing were performed by the manufacturer's (GenoCheck, Korea) instructions. Particularly, hybridization was performed in a 62° C. oven for 12 hours. As a DNA microarray chip, 44 k whole human genome oligo microarray (Agilent, USA) was used. After washing (2 minutes with 2×SSC/0.1% SDS, three minutes with 1×SSC, 2 minutes with 0.2×SSC), the slide was dried by centrifugation at 800 rpm for 3 minutes.
Hybridization image on the slide was scanned with Genepix 4000B (Axon Instruments, USA). Fluorescence image of the chip on which non-hybridized genes had been washed out was obtained by using laser fluorescence scanner. Green fluorescence image indicates the activity of gene specifically expressed in the control group and red fluorescence image indicates the activity of gene specifically expressed in the experimental group. […] Scanned image was analyzed by using GenePix 4.1 software (Axon Instruments, USA) to calculate gene expression rate.

[1] = out of 21797 (thalidomide), 21921 (valproic acid), 24006 (methotrexate) genes
[2] = treated at IC30, up-regulated gene, (h) Nervous system development

## CCCC(CCC)C(=O)O [VPA, valproic acid]
GenBank AB002308
  cDNA microarray (Cy3/Cy5 ratio), KIAA0310: 1.59
GenBank AB018258
  cDNA microarray (Cy3/Cy5 ratio), ATP10B: 2.03
GenBank AB209845
  cDNA microarray (Cy3/Cy5 ratio), TTF2: 1.81
GenBank AF001893
  cDNA microarray (Cy3/Cy5 ratio), TncRNA: 3.61
GenBank AK001879
  cDNA microarray (Cy3/Cy5 ratio), C4orf19: 1.87
GenBank AK023571
  cDNA microarray (Cy3/Cy5 ratio), CYP19A1: 1.78
GenBank AK023574
  cDNA microarray (Cy3/Cy5 ratio), SLC40A1: 1.7
GenBank AK095632
  cDNA microarray (Cy3/Cy5 ratio), ABTB2: 1.6
GenBank AK122757
  cDNA microarray (Cy3/Cy5 ratio), TUBB3: 1.7
GenBank AK125877
  cDNA microarray (Cy3/Cy5 ratio), MGC27016: 2.62
GenBank AK126731
  cDNA microarray (Cy3/Cy5 ratio), GLCCI1: 2.27
GenBank BC036890
  cDNA microarray (Cy3/Cy5 ratio), TFCP2L4: 3.12
GenBank BC042755
  cDNA microarray (Cy3/Cy5 ratio), RGS2: 3.04
GenBank BC063830
  cDNA microarray (Cy3/Cy5 ratio), SIAT7A: 1.69
GenBank BX648021
  cDNA microarray (Cy3/Cy5 ratio), B7-H4: 0.1
GenBank BX649112
  cDNA microarray (Cy3/Cy5 ratio), COBLL1: 1.52
GenBank NM_000735
  cDNA microarray (Cy3/Cy5 ratio), CGA: 2.14
GenBank NM_001618
  cDNA microarray (Cy3/Cy5 ratio), PARP1: 0.61
GenBank NM_004155
  cDNA microarray (Cy3/Cy5 ratio), SERPINB9: 3.02
GenBank NM_005668
  cDNA microarray (Cy3/Cy5 ratio), ST8SIA4: 1.79
GenBank NM_007313
  cDNA microarray (Cy5 treated / Cy3 control ratio), ABL1: 0.3
GenBank NM_024342
  cDNA microarray (Cy3/Cy5 ratio), GRLF1: 0.55
GenBank NM_032484
  cDNA microarray (Cy3/Cy5 ratio), LGP1: 0.52
GenBank NM_181659
  cDNA microarray (Cy3/Cy5 ratio), NCOA3: 1.62
GenBank XM_031553
  cDNA microarray (Cy3/Cy5 ratio), SR140: 0.36
GenBank Y18483
  cDNA microarray (Cy3/Cy5 ratio), SLC7A8: 2.48
Genbank AK091644, drug at IC30
  Ratio of intermediate value, FLJ13855: 0.44
Genbank BI494022, NM_024342, drug at IC30
  Ratio of intermediate value, GRLF1: 0.55
Genbank BX648021, drug at IC30
  Ratio of intermediate value, B7-H4: 0.10
Genbank NM_001618, drug at IC30
  Ratio of intermediate value, PARP1: 0.61
Genbank NM_007313, drug at IC30
  Ratio of intermediate value, ABL1: 0.30
Genbank NM_032484, drug at IC30
  Ratio of intermediate value, LGP1: 0.52
Genbank XM_031553, drug at IC30
  Ratio of intermediate value, SR140: 0.36
JEG-3, drug at IC30, 48 hours
  genes down-regulated (ratio of intermediate value less than 0.666): 5.5%
  genes up-regulated (ratio of intermediate value more than 1.5): 5.54%
[1]
  number of genes down-regulated: 1196
  number of genes up-regulated: 1215
[2]
  Ratio of intermediate value, gene ALDH5A1 (NM_170740, ALDEHYDE DEHYDROGENASE 5 FAMILY, MEMBER A1 (SUCCINATE-SEMIALDEHYDE DEHYDROGENASE)): 4.68
  Ratio of intermediate value, gene ALS2 (NM_020919, AMYOTROPHIC LATERAL SCLEROSIS 2 (JUVENILE)): 2.40
  Ratio of intermediate value, gene C22orf9 (AY509035, ROUND-ABOUT, AXON GUIDANCE RECEPTOR, HOMOLOG 3 (DROSOPHILA)): 2.30
  Ratio of intermediate value, gene DLX2 (AB208823, NM_004405, DISTAL-LESS HOMEOBOX 2): 3.18
  Ratio of intermediate value, gene DPYSL2 (NM_001386, DIHYDROPYRIMIDINASE-LIKE 2): 3.34
  Ratio of intermediate value, gene DPYSL5 (AL713706, DIHYDROPYRIMIDINASE-LIKE 5): 2.57
  Ratio of intermediate value, gene EDG1 (BC018650, ENDOTHELIAL DIFFERENTIATION, SPHINGOLIPID G-PROTEIN-COUPLED RECEPTOR, 1): 2.34
  Ratio of intermediate value, gene EFCBP1 (L20470, VERY LOW DENSITY LIPOPROTEIN RECEPTOR): 2.10
  Ratio of intermediate value, gene FABP7 (NM_001446, FATTY ACID BINDING PROTEIN 7, BRAIN): 9.51
  Ratio of intermediate value, gene FLJ20489 (AK056650, IMMUNOGLOBULIN SUPERFAMILY, MEMBER 9): 2.50
  Ratio of intermediate value, gene FLJ31842 (AY643499, HEXOSAMINIDASE B (BETA POLYPEPTIDE)): 2.38
  Ratio of intermediate value, gene GJA1 (NM_000165, GAP JUNCTION PROTEIN, ALPHA 1, 43 KDA (CONNEXIN 43)): 4.30
  Ratio of intermediate value, gene GRB14 (BM906235, INHIBITOR OF DNA BINDING 3, DOMINANT NEGATIVE HELIX-LOOP-HELIX PROTEIN): 4.33
